From paper PMC9957770, “Mass spectrometry imaging–based assays for aminotransferase activity reveal a broad substrate spectrum for a previously uncharacterized enzyme” (The Journal of Biological Chemistry, 2023)

Target: T1, AtTAT1 (Arabidopsis thaliana, UniProt Q9FN30)
T1 construct: gene At5g53970; pET28a construct of Wang et al. (2016), His-tagged, expressed in E. coli Rosetta-2 (DE3), HisTrap purified
T1 sequence (Q9FN30 1-414): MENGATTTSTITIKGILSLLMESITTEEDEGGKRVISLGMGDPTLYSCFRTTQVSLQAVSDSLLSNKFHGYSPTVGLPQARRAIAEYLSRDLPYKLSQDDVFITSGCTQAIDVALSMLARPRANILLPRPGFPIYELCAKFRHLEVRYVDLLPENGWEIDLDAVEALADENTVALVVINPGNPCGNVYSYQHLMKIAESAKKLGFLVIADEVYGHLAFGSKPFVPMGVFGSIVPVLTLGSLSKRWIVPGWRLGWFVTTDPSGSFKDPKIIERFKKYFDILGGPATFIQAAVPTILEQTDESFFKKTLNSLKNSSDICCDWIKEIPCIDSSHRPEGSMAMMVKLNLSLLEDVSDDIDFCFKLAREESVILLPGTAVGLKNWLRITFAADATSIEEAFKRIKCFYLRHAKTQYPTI
Assay: oxime tagging with NIMS mass spectrometry imaging
Assay type: biochemical
Details: 10 mM amino donor, 6 mM alpha-ketoglutarate, 0.5 mM PLP, 100 mM HEPES, final pH 7.6 to 8.0, 30 °C, 60 min

SMILES	oxime tagging with NIMS mass spectrometry imaging
N[C@@H](Cc1ccccc1)C(=O)O [phenylalanine]	AtTAT1 can use Tyr, histidine (His), leucine (Leu), methionine (Met), phenylalanine (Phe), and tryptophan (Trp)
N[C@@H](Cc1ccc(O)cc1)C(=O)O [tyrosine]	AtTAT1 can use Tyr, histidine (His), leucine (Leu), methionine (Met), phenylalanine (Phe), and tryptophan (Trp)
